Assay results as given in patent publication US5599789A, “Method for the treatment of tumours and sarcomas” (Amrad Corporation Limited, priority 1991, dated 1997).

How the values were obtained:
[1] = system: Ewing's Sarcoma cell line Al (uncloned); assay: Colony formation in semi-solid agar cultures, Al (uncloned) cells; type: cell-based, human; details: Al(uncloned), 5,000 cells, day 18
Procedure: Tumour cells obtained from biopsy and bone marrow specimens from patients with Ewing's Sarcoma were used in these studies. Approval for this project has been obtained from the Ethics Committee of the Royal Children's Hospital.
Single cell suspensions of tumour cells were obtained by mechanical disruption with an 18G or 21G needle or by pipetting, followed by incubation with dispase II (Boehringer) at a concentration of 1.2 units per ml for 10 minutes at 37° C. Prior to the addition to agar-medium the cells were vortexed gently to prevent clumping.
Clonal cell lines were grown in Iscove's Modified Dulbecco's Medium (IMDM) supplemented with 10% v/v foetal calf serum (FCS; CSL Limited, Melbourne, Australia) and were passaged either weekly or twice weekly. The characteristics of the Ewing Sarcoma cell lines used herein as described below:
(§1) The tumour cells were immobilised in 0.3% w/v agar containing Iscove's Modified Dulbecco's Medium (IMDM) and 10% v/v FCS. […] Cultures were scored for the presence of colonies (>40 cells) or clusters (<40 cells). The number of cells plated per culture ranged from 500 to 10,000 per ml. Colonies were counted on an Olympus dissecting microscope.
IL-1, IL-3, IL-4, IL-6, M-CSF, G-CSF, GM-CSF, Stem Cell Factor (SCF), TNFα, TGFα, TGFβ, EGF, aFGF, bFGF, NGF, IGF I, IGF II, PDGF and IFN-γ.
The recombinant human leukaemia inhibitory factor (LIF) was obtained from AMRAD Corporation Limited, Melbourne, Australia.

[2] = system: Ewing's sarcoma cells from cell line Al-5; assay: Clonogenicity in agar after LIF pretreatment in suspension culture; type: cell-based, human
Procedure: Ewing's sarcoma cells from cell line Al-5 in suspension cultures were incubated for seven days in the presence or absence of 100 ng/ml LIF prior to inoculation of replicate agar plates with 5×10^3 cells per ml which were then incubated for a further 18 days before colonies were scored. In all cases, the frequency of colonies obtained from LIF-pretreated cells was 35-55% lower compared to control cells.

[3] = Toxicity of hLIF in mice, daily subcutaneous injections; type: in vivo
Procedure: A number of preliminary experiments were performed to determine the appropriate daily dose of hLIF in mice. Mice were injected with high doses of hLIF (100 microgram per mouse). These studies led to death of the mice within 2 weeks of daily subcutaneous injections of LIF. Studies using lower doses (5-20 micrograms per mouse) of hLIF, led to survival of most of the mice for over 20 days. Retro-orbital bleeds were performed on the first 3 days to determine platelet counts. In all mice subcutaneously injected daily with 1 microgram or more of hLIF, the platelet count rose in the first 3 days (26-60% increment on baseline pretreatment levels). In this study an amount of 20 μg of hLIF was chosen to be subcutaneously injected daily into SCID mice bearing Ewing's Sarcoma tumours.

Ewing's Sarcoma cells = assay: Colony formation in agar cultures, a number of different Ewing's cell lines (summary statements); type: cell-based, human
From the text: as §1

For “LIF: recombinant human leukaemia inhibitory factor (E. coli derived) from AMRAD Corporation Limited”, the Colonies/Cultures ([1]; stimulus 0.01 ng) was 222, the Colonies/Cultures ([1]; stimulus 0.1 ng) was 205 and the Colonies/Cultures ([1]; stimulus 1 ng) was 160. For the same substance, the Colonies/Cultures ([1]; stimulus 10 ng) was 10, the Colonies/Cultures ([1]; stimulus 100 ng, mean of duplicate colony counts) was 8 and the “Frequency of colonies from LIF-pretreated cells, lower compared to control cells” value ([2]; Al-5, 100 ng/ml LIF for seven days in suspension, then agar 5×10^3 cells per ml, 18 days, three experiments) was 35-55%. The “Proportion of large colonies in LIF stimulated agar cultures” value ([2]; pretreatment with LIF in suspension cultures for 7-14 days) was “further reduced”, the “Platelet count rise, increment on baseline pretreatment levels” value ([3]; 1 microgram or more daily subcutaneously, first 3 days) was 26-60% and the “Survival of most of the mice” value ([3]; 5-20 micrograms per mouse) was “over 20 days”. The “Time to death of the mice” value ([3]; 100 microgram per mouse, daily subcutaneous injections) was ≤ 2 weeks, the “Effect on colony counts” value (Ewing's Sarcoma cells; between 0.1 and 100 ng LIF per culture, agar cultures, different Ewing's cell lines) was “able to significantly reduce colony counts” and the “Magnitude of colony reduction relative to other growth factors tested” value (Ewing's Sarcoma cells; culture of Ewing's Sarcoma cells) was “greater than those induced by other growth factors tested”. For the same substance, the “Number of colonies compared to untreated controls” value (Ewing's Sarcoma cells; culture of Ewing's Sarcoma cells, dose-dependent) was “significantly reduces the number of colonies”.
